Columns and labels:
Format in all cases: biochemical
[1] = test system: Helianthus annuus EPSPS with 868-H6 mutations, SEQ ID NO:10; test: EPSPS substrate saturation kinetics, sunflower H6; conditions: PEP
Protocol: (§1) EPSPS activity was determined by quantifying the phosphate generated from the EPSPS reaction. Release of inorganic phosphate was coupled to reaction with 2-amino-6-mercapto-7-methylpurine ribonucleoside, catalyzed by purine-nucleoside phosphorylase (M R Webb, Proc. Natl. Acad. Sci. 89:4884-4887, 1992). The absorbance change that occurs was monitored at 360 nm, where the extinction is 11,200 M^−1 cm^−1, with a Spectramax plate reader (Molecular Devices). To determine kinetic parameters, the varied substrate was present at seven concentrations (the eighth being the blank, containing no substrate) ranging from 4 to 400 uM and the unvaried substrate present at saturation. […] Reactions were monitored with a Spectramax plate reader. […] KI was then calculated from the following form of the Michaelis-Menten equation for competitive inhibition: KI=KM[I]/(KM app−KM) KM approximates the dissociation constant of the enzyme-substrate complex while kcat is the rate of conversion of substrate to product when the substrate concentration is saturating. kcat/KM is a widely accepted parameter for catalytic efficiency when substrate concentration is low (˜KM). […] The parameter kcat/KM×KI is used to quantify both catalytic efficiency and insensitivity and thus the overall fitness of the enzyme.
(§2) Native EPSPS amino acid sequences of rice (Oryza sativa) (SEQ ID NO:7), sorghum (Sorghum halepense) (SEQ ID NO:8), and sunflower (Helianthus annus) (SEQ ID NO:9) including the chloroplast transit peptide sequences were assembled and analyzed for mapping the corresponding amino acid mutations from the maize 868-H6. […]
(§3) ChloroP Prediction Server (Emanuelsson, O. et al. 1999. Protein Sci. 8(5):978-84) was used to approximate the amino terminus of the mature EPSPS proteins. […] The synthetic genes were cloned into a plasmid vector and expressed, purified and analyzed as described in Example 1.

[2] = target: Helianthus annuus EPSPS with 868-H6 mutations, SEQ ID NO:10 (Helianthus annuus, UniProt A0A251S0N3, A489G/D475G/E144Q/E375S/E464G/G175A/L171C/Q70R/R514Q/S352A/T434S/T72W/V156R/V281L/V511R); test: EPSPS substrate saturation kinetics, sunflower H6
Helianthus annuus EPSPS with 868-H6 mutations, SEQ ID NO:10 (Helianthus annuus, UniProt A0A251S0N3, A489G/D475G/E144Q/E375S/E464G/G175A/L171C/Q70R/R514Q/S352A/T434S/T72W/V156R/V281L/V511R), sequence (A0A251S0N3 67-518 with the stated changes): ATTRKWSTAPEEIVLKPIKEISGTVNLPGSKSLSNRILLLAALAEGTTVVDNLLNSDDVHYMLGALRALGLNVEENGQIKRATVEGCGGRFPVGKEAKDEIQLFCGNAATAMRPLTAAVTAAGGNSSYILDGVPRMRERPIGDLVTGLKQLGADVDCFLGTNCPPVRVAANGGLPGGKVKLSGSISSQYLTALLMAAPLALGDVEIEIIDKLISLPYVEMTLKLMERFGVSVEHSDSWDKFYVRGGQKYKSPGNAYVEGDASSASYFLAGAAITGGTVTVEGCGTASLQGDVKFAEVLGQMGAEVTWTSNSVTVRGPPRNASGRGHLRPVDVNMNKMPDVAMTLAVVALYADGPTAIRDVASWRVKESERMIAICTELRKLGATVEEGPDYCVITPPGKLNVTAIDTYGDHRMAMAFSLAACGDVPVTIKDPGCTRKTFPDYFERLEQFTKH
Protocol: as §1, §2, §3

[3] = target: T1, Zea mays EPSPS variant Zm-H6 (868-H6) (Zea mays, UniProt O24566, A1R/A3W/A415G/A71Q/D401G/E301S/E390G/G101A/I207L/K83R/L97C/T278A/T360S/T440Q/V437R); test: Substrate saturation analysis with glyphosate (Example 8), Zm-H6
T1 sequence (O24566 with tags, fused parts or gaps A1R/A3W/A71Q/K83R/L97C/G101A/I207L/T278A/E301S/T360S/E390G/D401G/A415G/V437R/T440Q): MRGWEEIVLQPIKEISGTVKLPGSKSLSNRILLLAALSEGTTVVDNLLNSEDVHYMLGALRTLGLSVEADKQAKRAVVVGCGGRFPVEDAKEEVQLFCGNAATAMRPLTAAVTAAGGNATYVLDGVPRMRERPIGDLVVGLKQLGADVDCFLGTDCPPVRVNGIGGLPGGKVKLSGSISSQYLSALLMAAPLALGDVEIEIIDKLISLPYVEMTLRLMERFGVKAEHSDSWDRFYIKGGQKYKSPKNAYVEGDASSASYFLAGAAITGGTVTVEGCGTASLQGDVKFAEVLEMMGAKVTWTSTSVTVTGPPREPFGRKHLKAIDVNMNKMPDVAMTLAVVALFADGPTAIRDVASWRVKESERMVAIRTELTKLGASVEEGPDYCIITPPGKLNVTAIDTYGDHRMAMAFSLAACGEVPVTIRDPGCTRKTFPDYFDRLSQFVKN
From the text: Generally, (kcat/KM)*KI is obtained by performing substrate saturation analysis in the absence and presence of inhibitor. However, that analysis takes longer. […] To validate the method, (kcat/KM)*KI was quantified using both methods—traditional (saturation) and the instant method (rapid), for variants of maize 5-enolpyruvylshikimate-3-phosphate synthase (EPSPS) and its competitive inhibitor, glyphosate.
The amino acid sequence of mature Zea mays EPSPS was obtained from GenBank entry CAA44974.1 (SEQ ID NO:2). A nucleotide sequence was created to add an N-terminal methionine and to optimize codon usage for expression in E. coli. The synthesized gene was cloned into an expression vector that provides a T7 promoter driving expression of the protein and a 10× N-terminal histidine tag. Variants selected for this study include native maize EPSPS and variants generated by a gene shuffling cascade described herein. […] Protein concentration was determined by absorbance at 280 nm using an extinction coefficient of 0.676 OD/mg/m L. The proteins were normalized to 0.5 mg/mL for assay.
EPSPS activity was determined by quantifying the phosphate generated by the reaction. […] The absorbance change that occurs was monitored continuously at 360 nm, where the extinction is 11,200 M-1 cm-1, with a Spectramax plate reader (Molecular Devices). […]

| Compound | kcat/KM relative to maize H6 [1] [%] | Ki [2] [µM] | (kcat/KM)*KI ([2]; PEP as substrate, glyphosate as inhibitor) | Ki [3] [µM] | (kcat/KM)*KI ([3]; substrate saturation, Zm-H6) |
| --- | --- | --- | --- | --- | --- |
| C=C(OP(=O)(O)O)C(=O)O [PEP, phosphoenolpyruvate] | 38 |  |  |  |  |
| O=C(O)CNCP(=O)(O)O [glyphosate, N-phosphonomethylglycine] |  | 1580 | 8960 | 381 | 3660 |

— patent US11549123B2, “Plant EPSP synthases and methods of use” (PIONEER HI-BRED INTERNATIONAL, INC., priority 2015, dated 2023)
